According to paper PMC4578755, “Development of novel cellular histone-binding and chromatin-displacement assays for bromodomain drug discovery” (Epigenetics & Chromatin, 2015):
Each block holds one molecule with its values, some of them ahead of it.

Tests used:
[1] = test system: FLAG-tagged BRD4 in HeLa cells; experiment: In situ cell extraction with IF, BRD4 displacement from chromatin; type: cell-based; settings: for IF signal for histone H3: HeLa FLAG-BRD4, two-color staining
[2] = test system: SMARCA2; design: method as in PMID 26139243; settings: cited from earlier work
[3] = biological target: T1, FLAG-tagged BRD4 in HeLa cells (Homo sapiens, UniProt O60885); experiment: In situ cell extraction with IF, BRD4 displacement from chromatin; type: cell-based; settings: HeLa FLAG-BRD4, 96-well, IF
T1 construct: expressed in transfected cells; host or cells: HeLa

[4] = test system: histone H3K23Ac mark in HeLa cells; experiment: H3K23 acetylation in HeLa cells (Western blot, anti-H3K23Ac immunostaining); type: cell-based; settings: HDAC inhibitor treatment, 2 µM, 2 h; Western blot
Method: Standard IF procedures were used. Briefly, cells were permeabilized (0.5 % Triton X-100 in PBS) for 15 min and incubated with blocking solution (DAKO #X0909) for 30 min. The following primary antibodies were used: goat anti-V5 (Bethyl #A190-119A) 1:200; mouse anti-FLAG (Sigma #F1804) 1:200; rabbit anti-BRD4 (Abcam #ab128874) 1:200; rabbit anti-TRIM24 (Proteintech #14208-1-AP) 1:400; rabbit anti-K3K23Ac (Cell Signaling #8848) 1:200, and mouse anti-histone H3 (Active Motif #39763) 1:4000. Alexa Fluor-conjugated secondary antibodies were from Invitrogen and Hoechst 33342 (Invitrogen, #H3570) was used for nuclei counterstaining (10 µg/ml). For each Alexa fluorochrome, images (4–10 fields per well; 20X magnifications) were acquired using the Operetta High-Content Screening System (PerkinElmer). Image analysis was performed in Harmony software (PerkinElmer) by selecting nuclei and cytoplasm in Hoechst channel. Gating for single cells of flat morphology was done based on nuclei area, roundness and intensity of Hoechst in the nucleus and in the cytoplasm. In every gated cell, the mean signal intensity value for each fluorochrome was calculated separately in nucleus and cytoplasm. The specific nuclear signal was estimated subtracting mean cytoplasmic value from nuclear; and average value was calculated using at least 1000 cells in each well.

[5] = biological target: biotinylated H3K23Ac peptide (N-terminal residues 1-33 of histone H3); experiment: AlphaScreen or HTRF; AlphaScreen optimisation matrix of TRIM24 protein and peptide (twofold dilution series); final conditions 5 nM TRIM24 and 15 nM peptide; Buffer B (50 mM Hepes pH 7.4, 100 mM NaCl, 0.1 % BSA, 0.05 % Chaps), room temperature
[6] = biological target: biotinylated H3K23Ac peptide (N-terminal residues 1-33 of histone H3); experiment: AlphaScreen or HTRF; AlphaScreen; biotinylated H3K23Ac peptide in excess (1 µM), indicated amounts of His-TRIM24 WT or N980A; streptavidin donor beads and Ni-NTA acceptor beads
[7] = biological target: FLAG-TRIM24-PHD-Bromo-V5 (isolated PHD-bromodomain, residues 810-1050) (human) (UniProt O15164); experiment: AlphaScreen or HTRF; AlphaLISA on lysates of HeLa TRIM24-PB cells pretreated with SAHA or DMSO; anti-FLAG or anti-V5 acceptor beads, biotinylated anti-histone H3 antibody, streptavidin donor beads; histone extraction buffer diluted in water
[8] = biological target: FLAG-TRIM24-PHD-Bromo-V5 (isolated PHD-bromodomain, residues 810-1050) (human) (UniProt O15164); experiment: proximity ligation; HeLa TRIM24-PB cells, fixed; goat anti-V5 and mouse anti-histone H3 antibody pair; with and without SAHA (5 µM, 2 h)

Chain of biotinylated H3K23Ac peptide (N-terminal residues 1-33 of histone H3) (peptide, as listed by the source): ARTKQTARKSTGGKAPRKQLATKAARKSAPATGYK

Molecule: Cc1sc2c(c1C)C(c1ccc(Cl)cc1)=N[C@@H](CC(=O)OC(C)(C)C)c1nnc(C)n1-2 [JQ1]
IF signal for histone H3 [1]: unaffected
Time to decrease in BRD4 bromodomain binding to chromatin ([1]; JQ1 1 µM, HeLa expressing FLAG-tagged bromodomain of BRD4): ≤ 5 min

Molecule: O=C(/C=C/N1C[C@H]2C[C@@H]1CN2c1ccccn1)c1ccccc1O [PFI-3]
Displacement of endogenous full-length SMARCA2 protein from chromatin [2]: fails to displace
Displacement of isolated GFP-tagged SMARCA2 bromodomain from chromatin ([2]; engineered cells): can displace

Displacement of BRD4 from chromatin [3]: partial displacement
Molecule: COc1cc(OC)c2c(=O)[nH]c(-c3cc(C)c(OCCO)c(C)c3)nc2c1 [RVX-208]

Molecule: CC(/C=C/C(=O)NO)=C\[C@@H](C)C(=O)c1ccc(N(C)C)cc1 [TSA, Trichostatin A]
Cellular histone H3K23Ac mark [4]: hyperacetylated

AlphaScreen S/B at 5 nM TRIM24 and 15 nM peptide [5]: 432
AlphaScreen signal to background (S/B) [6]: > 250
Molecule: His-tagged TRIM24 PHD-bromodomain, wild type (domain or fragment)

Molecule: I-BET 151
IF signal for histone H3 [1]: unaffected

AlphaLISA S/B (FLAG-acceptor beads, histone extraction buffer diluted 1:10) [7]: 50 fold
AlphaLISA S/B (FLAG-acceptor beads, histone extraction buffer replaced by water) [7]: 20
AlphaLISA S/B (V5-acceptor beads) [7]: 14 fold
AlphaLISA S/B (final 384-well protocol, 26 plates) [7]: 30
fold increase of the PLA signal with SAHA against no SAHA [8]: > 3 fold
Molecule: endogenous histone H3 (from UniProt P68431 1-136) (natural protein)
